Assay results: patent US20230303693A1, “BISPECIFIC ANTIBODY AGAINST CD3 AND CD20 IN COMBINATION THERAPY FOR TREATING DIFFUSE LARGE B-CELL LYMPHOMA” (GENMAB A/S, priority 2022, published 2023)
Like-named read-outs stand apart in the source and are kept apart here.

Legend:
T cells [1] = system: T cells
T cells [2] = assay: T cell viability after 16 hours pre-incubation with CHP components; conditions: pretreatment of T cells, 16 hours (data not shown)
[3] = system: relapsed or refractory (R/R) B-NHL, highly refractory large B-cell lymphoma; conditions: monotherapy, n=157; cited from earlier work
[4] = system: CD20-expressing Raji-luc tumor cells; conditions: NOD-SCID mice injected with Raji-luc tumor cells and PBMCs; even in presence of excess IgG1-RTX-FEAR; cited from earlier work
[5] = system: primary DLBCL and follicular lymphoma patient biopsies; conditions: cited from earlier work

In the case of O=P1(N(CCCl)CCCl)NCCCO1 (stereo not drawn) [cyclophosphamide, 2H-1,3,2-Oxazaphosphorin-2-amine, N,N-bis(2-chloroethyl)tetrahydro-, 2-oxide], the T cell viability (T cells [1]) is reported as “did not impact T cell viability”.
In the case of COc1cccc2c1C(=O)c1c(O)c3c(c(O)c1C2=O)C[C@@](O)(C(=O)CO)C[C@@H]3O[C@H]1C[C@H](N)[C@H](O)[C@H](C)O1 [doxorubicin], the T cell viability (T cells [2]) is reported as “led to a reduction in T cell viability”.
In the case of epcoritamab, the “complete response (CR) rate” value [3] is listed as 39%, the “median duration of response (DOR)” value [3] is listed as 12 months and the “overall response rate (ORR)” value [3] is listed as 63%. For the same molecule, the safety profile [3] was “manageable safety profile”, the tumor growth [4] was “effectively reduce tumor growth” and the T-cell-mediated cytotoxicity ([5]; biopsies taken a certain amount of time after administration of an anti-CD20 antibody) was “induced T-cell-mediated cytotoxicity”. For the same molecule, the tumor cell kill ([5]; biopsy taken 2 weeks after administering anti-CD20 antibody) was “up to 40%”.
